Experimental findings from article PMC11249953, “c-KIT inhibitors reduce pathology and improve behavior in the Tg(SwDI) model of Alzheimer’s disease” (Life Science Alliance, 2024) are described below.

In one test the target is T1, FLT3 (Homo sapiens, UniProt P36888).
T1 construct: DNA label for qPCR read-out (T7 phage fusion or DNA tag); purchased Eurofins DiscoverX Corporation; host or cells: T7 phage in E. coli (BL21-derived) or HEK-293
T1 sequence (P36888 27-993): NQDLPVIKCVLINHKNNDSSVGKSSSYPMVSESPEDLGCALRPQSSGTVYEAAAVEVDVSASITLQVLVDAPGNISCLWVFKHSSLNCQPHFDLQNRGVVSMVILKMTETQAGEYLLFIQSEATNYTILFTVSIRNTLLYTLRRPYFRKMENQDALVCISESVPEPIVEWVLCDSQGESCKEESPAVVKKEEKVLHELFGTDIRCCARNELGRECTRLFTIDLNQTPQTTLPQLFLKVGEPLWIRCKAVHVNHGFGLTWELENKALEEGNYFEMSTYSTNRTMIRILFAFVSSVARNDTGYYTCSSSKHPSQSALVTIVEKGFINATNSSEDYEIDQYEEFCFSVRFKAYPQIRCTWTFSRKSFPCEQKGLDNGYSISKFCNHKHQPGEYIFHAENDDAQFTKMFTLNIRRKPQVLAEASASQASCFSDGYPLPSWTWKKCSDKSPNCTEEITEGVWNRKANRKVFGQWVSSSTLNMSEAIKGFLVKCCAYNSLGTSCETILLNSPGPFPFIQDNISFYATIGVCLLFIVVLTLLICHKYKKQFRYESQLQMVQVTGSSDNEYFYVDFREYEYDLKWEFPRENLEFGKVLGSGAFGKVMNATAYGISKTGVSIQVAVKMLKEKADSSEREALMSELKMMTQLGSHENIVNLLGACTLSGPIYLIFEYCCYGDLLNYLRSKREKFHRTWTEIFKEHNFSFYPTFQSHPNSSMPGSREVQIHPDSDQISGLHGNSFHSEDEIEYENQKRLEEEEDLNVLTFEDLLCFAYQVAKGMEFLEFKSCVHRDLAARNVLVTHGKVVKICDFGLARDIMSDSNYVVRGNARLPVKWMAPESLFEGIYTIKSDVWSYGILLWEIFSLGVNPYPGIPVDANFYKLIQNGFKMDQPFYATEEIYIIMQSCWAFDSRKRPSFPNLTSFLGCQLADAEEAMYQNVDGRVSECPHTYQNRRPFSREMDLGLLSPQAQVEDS
Description: KINOMEscan competition binding, FLT3. The settings on record: 10 µM compound; for remaining binding at 10 µM: lower = stronger binding, read-out: FLT3 %Ctrl @ 10000nM (POC). Here is the method:
(§1) The KINOMEscan screening platform (Eurofins DiscoverX Corporation) was performed using active site-directed competition binding assay to quantitatively measure interactions between BK40143 and BK40197 and more than 450 human kinases and disease relevant mutant variants. […] Screening “hits” are identified by measuring the amount of kinase captured in test (BK40143 and BK40197) versus control samples by using a quantitative and ultra-sensitive qRT-PCR method that detects the associated DNA label. BK40143 and BK40197 were screened at 10 µM concentration, and results for primary screen binding interactions were reported as “% Ctrl” (POC), where lower numbers indicate stronger hits and calculated as follows: [test compound signal−positive control signal/negative control signal−positive control signal]×100
(§2) negative control = DMSO (100% Ctrl)
(§3) positive control = control compound (0% Ctrl)
(§4) Based on screening data from of profiled compounds, a proportional relationship between primary screening results and corresponding compound/target affinities can be described as binding constants (Kd values) for the indicated ranges of POC values with tighter binding (higher affinity) interactions associated with lower POC values and weaker binding (lower affinity) associated with higher POC values. Briefly, kinase-tagged T7 phage strains were grown in parallel in 24-well blocks in an E. coli host derived from the BL21 strain. E. coli were grown to log-phase and infected with T7 phage from a frozen stock (multiplicity of infection = 0.4) and incubated with shaking at 32°C until lysis (90–150 min). The lysates were centrifuged (6,000g) and filtered (0.2 μm) to remove cell debris. The remaining kinases were produced in HEK-293 cells and subsequently tagged with DNA for qRT-PCR detection. Streptavidin-coated magnetic beads were treated with biotinylated small molecule ligands for 30 min at RT to generate affinity resins for kinase assays. The liganded beads were blocked with excess biotin and washed with blocking buffer (1% BSA, 0.05% Tween 20, 1 mM DTT; SeaBlock [Pierce]) to remove unbound ligand and to reduce non-specific phage binding. Binding reactions were assembled by combining kinases, liganded affinity beads, and test compounds in 1x binding buffer (20% 0.17x PBS, 0.05% Tween 20, 6 mM DTT; SeaBlock). Test compounds were prepared as 100x stocks in 100% DMSO and directly diluted into the assay. All reactions were performed in polypropylene 384-well plates in a final volume of 0.02 ml. The assay plates were incubated at RT with shaking for 1 h and the affinity beads were washed with wash buffer (1x PBS, 0.05% Tween 20). […] The kinase concentration in the eluates was measured by qRT-PCR.

The next test deals with T2, ULK3 (Homo sapiens, UniProt Q6PHR2).
T2 construct: DNA label for qPCR read-out (T7 phage fusion or DNA tag); purchased Eurofins DiscoverX Corporation; host or cells: T7 phage in E. coli (BL21-derived) or HEK-293
T2 sequence (Q6PHR2 1-472): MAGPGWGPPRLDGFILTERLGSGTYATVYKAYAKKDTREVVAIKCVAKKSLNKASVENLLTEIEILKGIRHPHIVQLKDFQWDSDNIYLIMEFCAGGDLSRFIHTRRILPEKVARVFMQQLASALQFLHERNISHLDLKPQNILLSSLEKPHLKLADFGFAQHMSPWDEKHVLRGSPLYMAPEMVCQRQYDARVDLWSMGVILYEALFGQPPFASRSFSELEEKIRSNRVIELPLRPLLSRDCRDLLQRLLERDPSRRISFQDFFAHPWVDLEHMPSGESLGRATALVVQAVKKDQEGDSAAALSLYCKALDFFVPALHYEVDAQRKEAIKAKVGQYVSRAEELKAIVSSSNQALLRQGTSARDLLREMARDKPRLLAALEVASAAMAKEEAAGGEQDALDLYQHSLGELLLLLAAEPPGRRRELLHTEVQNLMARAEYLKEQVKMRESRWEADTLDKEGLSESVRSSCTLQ
Description: KINOMEscan competition binding, ULK3. The note with it: 10 µM compound; for remaining binding at 10 µM: lower = stronger binding, read-out: ULK3 %Ctrl @ 10000nM (POC). Here is the method: as §1, §2, §3, §4

In a further test the test system is TgAPP mice. Description: Novel object recognition, TgAPP mice. It is filed as in vivo, mouse. The note with it: BK40143 5 mg/kg, BK40197 45 mg/kg IP, 6 wk, vs DMSO. As for the experimental part: Novel object recognition was carried out using a 50 × 50 cm arena with clear walls covered by brown construction paper. Mice were habituated to the room for 30 min each day, before being allowed to freely explore the arena for 5 min two times, for 3 d. On the 4th d, two identical objects were placed in the arena in opposite adjacent corners, 10 cm from the corner of the arena. Mice were placed along the wall opposite from the objects and allowed to freely explore for 10 min. Approach behavior (extending nose toward the object) toward both objects was recorded manually using handheld stop watches and compared with ensure there was no preference for either neutral object. For the probe trial, one object was removed and replaced with a novel object, and mice were again allowed to freely explore for 10 min, with approach time towards the novel and familiar objects recorded. Trials in which the mice explored for less than 1 s were excluded. Discrimination index was calculated by dividing time spent exploring the novel object by total time exploring both objects and was compared for treated versus control animals.

The term inhibition denotes the drop in the measured response relative to a control, in per cent. Regarding `Cc1cccc(-c2cc3nccc(N4CCOCC4)c3s2)c1` [BK40197], the results for the inhibition at 10 µM at FLT3 and on ULK3 were 89% and 93.9%, respectively. For the same compound, the values for the remaining binding at 10 µM at FLT3 and on ULK3 were 11% and 6.1%, respectively. In the test on TgAPP mice, the “novel object recognition: time exploring the novel object” value was “spent significantly greater amounts of time exploring the novel object”.

On to `Cc1cccc(-c2cc3nccc(Nc4ccccc4)c3s2)c1` [BK40143], for which, on FLT3, the inhibition at 10 µM is 95.3% and the remaining binding at 10 µM was found to be 4.7%. Moreover, at ULK3, the inhibition at 10 µM stood at 90.2% and the remaining binding at 10 µM amounted to 9.8%. Further, the “novel object recognition: time exploring the novel object” value with TgAPP mice is “spent significantly greater amounts of time exploring the novel object”.
